2 compounds from patent US12158464B2, “Methods for modeling disease tissue using three-dimensional tissue systems” (priority 2013, dated 2024) can be followed below.

Data set [1] deals with Hes2 hESC derived cardiomyocytes. In kind it is cell-based, human. As to conditions: single cells dissociated at end of 7 days treatment, cardiac troponin T staining. The procedure:
(§1) After preculture for 7 days, biowires were randomly transferred to 6-well plates and cultured in StemPro-34 media in the absence or presence of Isoproterenol (100 nM), Angiotensin II (200 nM [17]) or Endothelin-1 (150 nM)(Sigma) for 7 days. This protocol was chosen to replicate the chronic treatment of mice as described. […] Isolated single cells were seeded on Matrigel-coated glass cover slips before cell area and calcium transient measurements were performed.

The subject of data set [2] is hESC-derived CMs 3D tissues. Type of data set: cell-based, human. The procedure:
Alternatively, to measure the force generated by the 3D engineered cardiac tissues, a bioreactor consisting of a PDMS tissue chamber capable of housing 8 micotissues was employed. […] Briefly, each well of the PDMS chamber had two posts which served as anchoring points for each cardiac tissue during gel compaction. Furthermore, by tracking a post's deflection, the force of contraction a cardiac tissue generated was determined. Cardiac tissues underwent 7 days of pre-culture followed by 7 days of treatment with endothelin-1, angiotensin II or isoproterenol. After the treatment, the contractile force of each cardiac tissue was determined by video recording, one at a time, the top surface of a post for each cardiac tissue while being paced at 0.5 or 1 Hz using CellSens software (Olympus). Each video was then exported as a series of Tiff images and opened in ImageJ. […] Using the method of superposition for a cantilever beam-partial uniform deflection, a point force was calculated and then normalized to the tissues cross sectional area (assumed circular) to determine the cardiac force per area.

In data set [3] the test system is hESC-CM biowires (Hes2). As to the kind of experiment: Chronic drug exposure: ELISA of soluble BNP in conditioned media. Type of data set: cell-based, human. The procedure:
After preculture for 7 days, biowires were randomly transferred to 6-well plates and cultured in StemPro-34 media in the absence or presence of Isoproterenol (100 nM), Angiotensin II (200 nM [17]) or Endothelin-1 (150 nM)(Sigma) for 7 days. This protocol was chosen to replicate the chronic treatment of mice as described. […] Isolated single cells were seeded on Matrigel-coated glass cover slips before cell area and calcium transient measurements were performed. ELISA. Quantification of soluble BNP from the conditioned media was performed using commercially available ELISA kits.
(An ELISA detects its analyte on a solid surface through an enzyme-linked reagent.)

Data set [4] has as its system hESC-CM biowires (Hes2). Nature of the data set: Chronic drug exposure: conduction velocity by optical mapping upon point stimulation. In kind it is cell-based, human. As to conditions: point stimulation at the end of cultivation, vs non-treated controls. The procedure:
Optical Mapping. […] Imaging was performed at 200 frames/s. […] Data analysis was performed using BrainVision software (Scimedia).

The test system of data set [5] is human cardiac tissue strands (hESC, Hes2 derived cardiomyocytes). As to the kind of experiment: Biorod drug testing: tissue beating pattern and contractile force by polymer wire deflection. In kind it is cell-based. The procedure: Cardiomyocytes were derived from human embryonic stem cell lines (hESC, Hes2). Embryoid bodies (EBs) were differentiated to the cardiovascular lineage and disassociated as previously described in Device 1 Methods. Before cell seeding, micro-well surface was rinsed with 5% (w/v) Pluronic Acid (Sigma P2443) and then air dried in the bio-safety cabinet. hESC derived cardiomyocytes were suspended at 200 million/ml (unless specified otherwise) in Collagen Type I based gel (3.0 mg/ml of rat tail collagen type I (BD Biosciences) neutralized by 1N NaOH and 10×M199 media as described by the manufacturer) with the supplements of […], 1% (v/v) HEPES, 10% (v/v) Matrigel (BD Biosciences), and […]. Suspended cardiomyocytes were then seeded into the cell culture channel (2.5 μl per well). After 30 min incubation at 37° C. to induce the gelation, appropriate media were added. After seeding, cells were kept in culture for 7 days to allow collagen matrix remodeling and assembly around the wires. Cardiac tissue strands were kept in culture for up to 21 days with media change every 2-3 days. Preferably, the tissue strands should be kept in culture for at least 2 weeks to allow for maturation; however there is no limitation on the maximum culture duration. Cardiac tissue strands were seeded to observe the stability and reproducibility of tissue in long term culture. After seeding, brightfield images (see FIG. 39A for an example) of the tissue strands were taken every day (n=3 per group) using optical microscope (Olympus CKX41) and the diameters of the tissue strands at four distinct locations were analyzed with imageJ (see FIG. 39B for an example). Tissue strand lengths were also analyzed with same method.
Tissue contractile behavior tracing and measurement was carried out. POMac is auto-fluorescent at a wide range of wavelenths; therefore the wires were imaged with a fluorescence microscope under DAPI channel (e.g. 461 nm wavelength) to trace the bending movements of the wires. The POMac is auto-fluorescent at a wide range of wavelengths, including under FITC and Tritc channels. Images were taken at 25 frames per second (fps) (see FIG. 39C). Image sequences were analyzed with ImageJ software using tracking plugin. To calculate the forces originated from cardiac tissues, beam deflection formula with uniformly distributed load in the middle section was used here. […] The engineered cardiac tissues were paced at 2 Hz frequency. From this image sequence, contraction and relaxation time of beating can be estimated. […] Tissue stretching wires can be considered uniformly distributed Load, Wo (Load per force bearing length), which can be calculated with displacement of center point of wires in image sequence, and F can be calculated as well. […] Briefly, entire beam length was L. Section of wire with tissue wrapping around it was experiencing load. Here, the load was assumed to be evenly distributed throughout this section, and Wo was load per length. […] The distance between side of the tissue and a well wall is a, which was assumed equal for both sides. The deflection at center point was y.
Drug testing was carried out.

The subject of data set [6] is hESC-CM biowires (Hes2). Type of data set: cell-based, human. As for the experimental part: After preculture for 7 days, biowires were randomly transferred to 6-well plates and cultured in StemPro-34 media in the absence or presence of Isoproterenol (100 nM), Angiotensin II (200 nM [17]) or Endothelin-1 (150 nM)(Sigma) for 7 days. This protocol was chosen to replicate the chronic treatment of mice as described. […] Isolated single cells were seeded on Matrigel-coated glass cover slips before cell area and calcium transient measurements were performed. Immunostaining and Fluorescence Microscopy. Immunostaining was performed using the following antibodies: mouse anti-cTNT (1:100, Thermo Scientific; MS-295-P1), mouse anti-α-actinin (1:200, Abcam, ab9465), anti-mouse-Alexa Fluor 488 (1:400, Invitrogen, A21202), anti-rabbit-TRITC (1:400, Invitrogen, 81-6114). DAPI was used to counterstain nuclei. Phalloidin Alexa Fluor 660 (1:1000, Invitrogen, A22285) was used to detect actin fibers. The stained cells were visualized using a fluorescence microscope (Leica CTR6000) and images captured using the Leica Application Suite software. For confocal microscopy cells were visualized using a fluorescence confocal microscope (Zeiss LSM-510). Transmission Electron Microscopy (TEM). Tissue was fixed with 4% Paraformaldehyde, 1% Glutaraldehyde in 0.1 M PBS for at least 1 hr and washed 3 times with PBS pH 7.2. Post-fixation was done with 1% Osmium Tetraoxide in 0.1 M PBS, pH 7.2 for 1 hr and dehydrated using ethanol series from 25 to 100%. Tissue was infiltrated using Epon resin and polymerized in plastic dishes at 40° C. for 48 hr. Tissue was stained with Uranyl Acetate and Lead Citrate after sectioning. Imaging was performed at Hitachi H-7000 transmission electron microscope.

Data set [7] has as its system hESC-derived CMs 3D tissues. Nature of the data set: Chronic drug exposure: cell viability in 3D tissues by live/dead staining. In kind it is cell-based, human. As to conditions: vs non-treated controls.
In data set [8] the test system is hESC-CM biowires (Hes2). As to the kind of experiment: Chronic drug exposure of biowires: quantitative RT-PCR of fetal gene program. In kind it is cell-based, human. Conditions: 7 days treatment: ISO 100 nM, Et-1 150 nM, AngII 200 nM, vs untreated control. The procedure:
as §1
Quantitative RT-PCR. RT-PCR was performed as previously described. Total RNA was prepared with the High Pure RNA Isolation Kit (Roche) and treated with RNase-free DNase (Roche). RNA was reverse transcribed into cDNA using random hexamers and Oligo (dT) with SuperScript VILO (Invitrogen). RT-qPCR was performed on a LightCycler 480 (Roche) using LightCycler 480 SYBR Green I Master (Roche). Expression levels were normalized to the housekeeping genes TATA box binding protein (TBP) or Glyceraldehyde 3-phosphate dehydrogenase (GAPDH).

The subject of data set [9] is hESC-derived cardiomyocyte tissue strands. Nature of the data set: α-actinin immunostaining and confocal microscopy of NO-treated tissue strands. In kind it is cell-based, human. As to conditions: NO treatment by perfusion, vs control tissue strands. As for the experimental part:
Tissue strands were fixed with 4% parafornaldehyde, permeablized by 0.25% Triton X-100, and blocked by 10% bovine serum albumin (BSA). Immunostaining was performed using the following antibodies: mouse anti-cardiac Troponin T (cTnT) (Abcam; 1:100), mouse anti-α-actinin (Abcam; 1:200) and anti-rabbit-TRITC (Invitrogen; 1:200), anti-mouse-TRITC (Jackson Immuno Research; 1:200). Nuclei were counterstained with 4′,6-diamidino-2-phenylindole (DAPI) (Biotium; 1:100). Phalloidin-Alexa 660 (Introgen; 1:600) was used to stain F-actin fibers. For confocal microscopy, the stained cardiac tissue strands were visualized under an inverted confocal microscope (Olympus IX81) or an upright confocal microscope (Zeiss LSM 510).
NO treatment of human cardiac tissue strands was carried out. On day 7, the NO treatment of human cardiac tissue strand was initiated by perfusing the 200 mM SNP solution and the peristaltic pump was stopped once the SNP solution was perfused through the tubing. The beating activities of the human cardiac tissue strands were recorded at 16.67 frames/second before treatment and 24 hr post-treatment by Olympus IX81 while the tissue strands were kept at 37° C. The beating activities of the human cardiac tissue strands were quantified by the image analysis method described by Sage et al^28. […]

Data set [10] shares this test system. As to the kind of experiment: NO treatment of perfusable human cardiac tissue strands, beating activity by image analysis. Type of data set: cell-based. Conditions: 24 hr NO treatment by perfusion of 200 mM SNP. The procedure: NO treatment of human cardiac tissue strands was carried out. On day 7, the NO treatment of human cardiac tissue strand was initiated by perfusing the 200 mM SNP solution and the peristaltic pump was stopped once the SNP solution was perfused through the tubing. The beating activities of the human cardiac tissue strands were recorded at 16.67 frames/second before treatment and 24 hr post-treatment by Olympus IX81 while the tissue strands were kept at 37° C. The beating activities of the human cardiac tissue strands were quantified by the image analysis method described by Sage et al^28. In brief, the movements of one spot at the same location on the human cardiac tissue strand before and after the NO treatment were characterized.

“Also recorded” adds a separate entry of the source.

In the case of `CC(C)NCC(O)c1ccc(O)c(O)c1` (centres unmarked) [ISO, Isoproterenol], the “increase in cell size” value in data set [1] stood at 35%. The force of contraction result in data set [2] is recorded as “significantly reduced force of contraction”. Further, in the data set with hESC-CM biowires (Hes2) [3] (chronic treatment), the “BNP in the conditioned media” value is recorded as “BNP can also be found in the conditioned media”. In addition, in the data set on hESC-CM biowires (Hes2) [3] (day 2 post-treatment, media conditioned for 48 h), the “increase in the secretion of BNP” value was 2.5 fold. Also, in the data set with hESC-CM biowires (Hes2) [3] (day 7, media conditioned for 24 h), the “increase of BNP in the media” value is listed as 70%. Further, in the data set with hESC-CM biowires (Hes2) [4], the conduction velocity entry is “the same”. The “tissue contractile forces normalized to forces before drug addition” value was “positive inotropic action” in [5] (100 nM), “positive inotropic action” in data set [5] (1 μM) and “slight negative inotropic effect” in data set [5] (10 μM). In addition, the “response of human cardiac tissues to well-known drugs” value in [5] (summary statement) is “responded appropriately”. The “contractile apparatus (transmission electron microscopy)” value in the data set with hESC-CM biowires (Hes2) [6] was “significant absence of distinct Z-disks and the lack of a defined sarcomere structure”. Further, the “cell viability (live/dead staining)” value in data set [7] is “no differences”. Besides, the “ANF and BNP gene expression (fetal gene program)” value in the data set with hESC-CM biowires (Hes2) [8] is “significantly induced”; in the data set on hESC-CM biowires (Hes2) [8] (listed as Isoproterenol), “induction of brain natriuretic peptide (BNP) and atrial natriuretic factor (ANF) gene expression”.
As to `[N]=O` [NO, nitric oxide], in data set [9], the “α-actinin structure (cytoskeleton) of cardiomyocytes” value is “disrupted α-actinin structure; also recorded: overall punctate pattern”. The “spontaneous beating of human cardiac tissue strands” value in data set [10] (vs basal level) is given as “significantly slowed down the beating”. In addition, the “beating frequency after NO treatment normalized to the basal level” value in data set [10] (n=3) was 74±3%.
